Experimental data reported in article PMC10709327, “A class of secreted mammalian peptides with potential to expand cell-cell communication” (Nature Communications, 2023).
Where a SMILES comes first, the peptide text is derived from it. [ ]: non-standard residue; d: D form. pGlu = O=C1CC[C@@H](C(=O)O)N1

Test system: diet-induced obese male mice
Assay: 3-day food intake and body weight under daily dosing
Type: in vivo, mouse
Conditions: for Food Intake: 50 mg/kg
Experimental: Fig. 5 Functional studies of […] in feeding and energy balance in mice. a Schematic of the primary amino acid sequence for full-length mouse GDF15 preproprotein and annotation of CAP-GDF15 sequence as well as the canonical GDF15 hormone sequence. b–d Food intake (b), respiratory exchange ratio (RER, c), and ambulatory activity (d) of 12–16-week diet-induced obese male mice following a single treatment of CAP-GDF15 (50 mg/kg, intraperitoneal) or vehicle control. e–g Food intake (e), RER (f), and ambulatory activity (g) of 12–16-week diet-induced obese male mice following a single treatment of scrambled CAP-GDF15 (50 mg/kg, intraperitoneal, scrambled sequence: pGlu-[…]-NH2) or vehicle control. h, i 3-day food intake (h) and body weight (i) of 12–16-week diet-induced obese male mice following treatment with CAP-GDF15 or scrambled CAP-GDF15 (50 mg/kg/day, IP), or vehicle control. Data are shown as means ± SEM. b–d, N = 12 mice/group; for e, f N = 8 mice/group; for h N = 7 food cages for vehicle and CAP-GDF15 groups and N = 5 for the scrambled peptide group; for i N = 14 mice for the vehicle group, N = 13 for the CAP-GDF15 group, and N = 5 for the scrambled peptide group. b–i injection occurred at time T = 0 (5:00 pm) and data were collected for the following 16 hrs. For (b-i), p values were calculated by two-way ANOVA. Source data are provided as a Source Data file.
Lastly, to determine whether the acute food intake suppressive effects of CAP-GDF15 would lead to long-term suppression of feeding and obesity, we administered CAP-GDF15 or scrambled CAP-GDF15 (50 mg/kg/day, IP), or vehicle control to diet-induced obese mice. Food intake and body weight were monitored over a three-day period. A durable suppression of food intake in CAP-GDF15-treated mice was over the three-day experiment (Vehicle, 7.3 ± 0.5 g/mouse; […], 4.1 ± 0.9 g/mouse/day, P < 0.05, Fig. 5h). Consequently, and as expected, an increasing reduction in body weight was also detected (Vehicle, +0.1 ± 0.3 g/mouse; CAP-GDF15, −1.9 ± 0.3 g/mouse, P < 0.001, Fig. 5i). Importantly, mice treated with the scrambled CAP-GDF15 peptide were indistinguishable in body weight or food intake from control mice (P > 0.05 versus vehicle-treated mice, Fig. 5h, i).
Animal experiments were performed according to a procedure approved by the Stanford University Administrative Panel on Laboratory Animal Care. Mice were maintained in 12-h light-dark cycles at 22 °C and about 50% relative humidity and fed a standard irradiated rodent diet. Where indicated, a high-fat diet (D12492, Research Diets 60% kcal from fat) was used. Male C57BL/6 J (stock number 000664) and male C57BL/6 J DIO mice were purchased from the Jackson Laboratory (stock number 380050). For studies in high-fat diet-fed mice, peptides were dissolved in 18:1:1 (by volume) of saline:Kolliphor EL (Sigma Aldrich):DMSO and administered to mice by intraperitoneal injections at a volume of 10 µl/g at the indicated doses for the indicated times. For lipopolysacchardide injection, LPS (Sigma, #L2880-10MG) was dissolved in saline and administered to mice at a volume of 5 µl/g at indicated dose. For fasting, food was removed from mice for 16 h. For running, a six-lane Columbus Instruments animal treadmill (product 1055-SRM-D65) was used with following 1 h protocol: 10 min at 6 m/min, 50 min at 18 m/min, and increase every 2 min by 2 m/min for the last 10 minutes, all at 12° incline. For all treatment experiments, mice were mock injected with the vehicle for 3–5 days until body weights were stabilized. Heparin plasma was harvested by submandibular bleed. For all experiments, mice were randomly assigned to treatment groups. Experimenters were not blinded to groups.

CC(C)C[C@H](NC(=O)[C@@H]1CCC(=O)N1)C(=O)N[C@@H](CCC(=O)O)C(=O)N[C@@H](CC(C)C)C(=O)N[C@@H](CCCNC(=N)N)C(=O)N[C@@H](CC(C)C)C(=O)N[C@@H](CCCNC(=N)N)C(=O)N[C@H](C(=O)N[C@@H](C)C(=O)N[C@@H](C)C(=O)NCC(=O)N[C@@H](CCCNC(=N)N)C(N)=O)C(C)C [CAP-GDF15] ([pGlu]LELRLRVAAGR-NH2)
Food Intake (24 h, individual animal 1): 0.5 g
Food Intake (24 h, individual animal 2): 2.2 g
Food Intake (24 h, individual animal 3): 1.3 g
Food Intake (24 h, individual animal 4): 1.4 g
Food Intake (24 h, individual animal 5): 0.3 g
Food Intake (24 h, individual animal 6): 0.825 g
Food Intake (24 h, individual animal 7): 0.525 g
Food Intake (48 h, individual animal 1): 1.2 g
Food Intake (48 h, individual animal 2): 5 g
Food Intake (48 h, individual animal 3): 2.9 g
Food Intake (48 h, individual animal 4): 4.1 g
Food Intake (48 h, individual animal 5): 0.6 g
Food Intake (48 h, individual animal 6): 1.8 g
Food Intake (48 h, individual animal 7): 1.325 g
Food Intake (72 h, individual animal 1): 2.9 g
Food Intake (72 h, individual animal 2): 7.8 g
Food Intake (72 h, individual animal 3): 4.9 g
Food Intake (72 h, individual animal 4): 6.7 g
Food Intake (72 h, individual animal 5): 0.8 g
Food Intake (72 h, individual animal 6): 2.95 g
Food Intake (72 h, individual animal 7): 2.775 g
body weight change over three days (50 mg/kg/day IP, diet-induced obese mice, mean ± SEM, N = 13 mice): −1.9 ± 0.3 g/mouse
